Experimental data taken from patent US20030176356A1, “Endothelin antagonists and endothelin-converting enzyme inhibitors for the treatment of glaucoma” (University of North Texas Health Science Center, priority 2001, published 2003).
Entries after “also recorded” stand apart in the source; their conditions may differ. No end group written: not given here.

What was measured:
[1] = tested on: human non-pigmented ciliary epithelial (HNPE) cells; assay: Nitric oxide release from HNPE cells (nitrite, Griess colorimetric assay); format: cell-based; conditions: 100 nM ET-1, 24 hours; control 14.4±1.8 μM nitrite
Method: The effect of endothelin-1 (ET-1) and PD-142893, an ETA/B receptor antagonist, on nitric oxide (“NO”) release from human non-pigmented ciliary epithelial (HNPE) cells are illustrated in FIG. 6. The NO released into the culture media from HNPE cells grown in 24-well plates and treated with ET-1 (100 nM) for 24 hours was converted to nitrites. The total amount of nitrites was measured using the Griess colorimetric assay. HNPE cells were pre-treated with PD-142893 (1 μM) for 30 minutes and then 100 nM ET-1 was also added and incubated for 24 hours. The values in FIG. 6 represent the mean±SEM of a ratio between the nitrite produced under experimental conditions divided by the nitrite produced in control cells, which corresponded to 14.4±1.8 μM and controls were expressed as 100% (n=3). Statistical significance of the nitrite released from ET-1 (100 nM) treatment versus the control are denoted with an asterisk (“*”). Statistical significance of the nitrite released from PD-142893+ET-1 (100 nM) treatment versus that of ET-1 (100 nM) are denoted as a double asterisk (“**”) The statistical differenced were determined by one-way ANOVA and Student-Newman-Keuls multiple comparison test (p<0.05). Thus, addition of ET-1 increased the nitrite levels nearly 2-fold when compared to control cells or cells treated with PD-142893.

[2] = tested on: NOS2; assay: NOS2 mRNA expression in HNPE cells by RT-PCR; format: cell-based, human; conditions: 100 nM ET-1, 24 hours, qualitative, vs non-treated controls
From the text: Utilizing the powerful technique of RT-PCR on mRNA transcripts of NOS2, the amplified products were separated on an agarose gel and compared with untreated control RT_PCR products. […] RT-PCR products of the β-actin housekeeping gene were also amplified and visualized on an agarose gel as a mRNA isolation control.

[3] = tested on: rat optic nerve; assay: Anterograde axonal transport in rat optic nerve after intravitreal injection (35S-methionine pulse label); format: in vivo; conditions: for effect of ET-1 on anterograde axonal transport: intravitreal 2 nmol
From the text: Newly synthesized proteins undergoing anterograde axonal transport in the optic nerve were pulse-labeled in either the presence or absence of endothelin as modified from previously published methods (van Biesen et al., 1995). Modifications to previously published methods were minimal and involved the replacement of a distilled water vehicle for resuspension of radiolabeled precursors with either HEPES buffered ET-1 or HEPES vehicle buffer alone. ^35S-Methionine (Easytag EXPRESS PROTEIN LABELING MIX, Dupont-NEN Life Sciences, Boston, Mass.) was lyophilized and resuspended in either vehicle alone (10 mM HEPES, pH 7.4, Sigma Chemical Co., St Louis, Mo.) or in vehicle containing 500 μM ET-1 (Bachem, Belmont, Calif.). Rats were anesthetized by Metofane inhalation, and 0.8 mCi (4 μl) of radiolabel in vehicle either plus or minus ET-1 (final dose 2 mmols), was injected into the vitreous of the left eye using a 30 gauge needle attached to a Hamilton syringe (microliter #710, 22s gauge, Hamilton Co., Reno, Nev.) by polyethylene tubing (PE-20, Clay Adams Brand, Becton Dickson and Co., Sparks, Md.) (van Biesen et al., 1995). In one experiment, ET-3 was substituted for ET-1, using the same methods (2 mmol dose, 28 hour ISI, N=7 for controls, N=7 for experimentals). […] One minute after injection, all retinas appeared normal in color. (Based upon these initial observations, further observations of the retinas were not performed). Information on the dose-related effect(s) of intravitreal ET-1 in this species (i.e. rat) were unavailable, and physiological/pathological concentrations of endothelin in the optic nerve head's microenvironment are generally unknown. Therefore, dose selection was made on the basis of a small pilot study, using these methods and measuring the total pulse-labeled protein axonally transported into the rat optic nerve. (An N of 3 rats in every group was used only for the pilot study, 4 hour ISI, data not shown). […] However, significant effects on axonal transport (4 hour ISI) were only seen in the pilot study for the 2 mmol dose. […] Possible effect(s) on non-assayed ocular tissues were not considered in dose selection, as data on these were unavailable for either acute or chronic intravitreal ET-1 administration, in rats.
This technique was employed to determine if endothelin-1 also affected the axonal transport in the optic nerve of rats, which is severely compromised in glaucoma. Harvest and preparation of pulse-labeled optic nerves in animals, wherein animals were anesthetized with metofane at specified times after injection and sacrificed by decapitation. Injection-sacrifice intervals were selected based upon the published characterizations of anterograde axonal transport in rat optic nerve for specific marker proteins associated with specific classes of axonally transported materials (Table 4) (Elluru et al., 1995; Garner and Lasek, 1981; Garner and Lasek, 1982; Jahn et al., 1985). Seven vehicle-treated animals and seven endothelin-treated animals were sacrificed at each of the specified times (4, 24, 28, 32, 36 hours and 4, 21 days). Optic nerves were removed, flash frozen with crushed dry ice, and sectioned frozen. Nerves were sectioned to aid complete homogenization, and to provide additional data for future studies. The frozen sections (2 mm in length) were numbered as segments 1-4 (from proximal to distal), and glass-on glass homogenized in 100 μlof BUST sample buffer (2% β-mercaptoethanol, 8M urea, 1% SDS, 0.1M Tris, 0.02% phenol red, pH 7.4). A 25% aliquot of each homogenized segment was counted in a liquid scintillation counter, and counts were corrected for decay, quench, and counting efficiency.

[4] = tested on: NOS-2; assay: NOS-2 mRNA expression in retina after intravitreal injection, RT-PCR; format: in vivo, Brown Norway rats; conditions: intravitreal 2 mmoles, 4 hours or 24 hours post-injection
Method: Elevated NOS-2 expression and peroxynitrite labeling are observed in glaucomatous retina and optic nerve head and are considered to be neurotoxic, which promote retinal ganglion cell death. ET-1 was injected in the left eye (OS) of rats while the right eye served as an contralateral control. Saline was also injected in some rats.

ET-1: active 21 amino acid residue endothelin peptide (Bachem) (CSCSSLMDKECVYFCHLDIIW; ends and bridges not checked; cysteine pairing not given here; UniProt P05305 53-73, looked up)
increase of nitrite levels compared to control cells [1]: ~2 fold
NOS2 mRNA levels [2]: elevated mRNA levels of NOS2
total pulse-labeled protein axonally transported into the rat optic nerve (pilot study) ([3]; 0.3, 0.4, and 2 mmol doses intravitreal, 4 hour ISI, significant only for the 2 mmol dose): trend of increasingly enhanced axonal transport
effect of ET-1 on anterograde axonal transport ([3]; ISI 4 hr, fast component, MBO/small tubulovesicles): significant enhancement; also recorded: increased
effect of ET-1 on anterograde axonal transport ([3]; ISI 24 hr, fast component, MBO/small tubulovesicles): significant enhancement; also recorded: increased
effect of ET-1 on anterograde axonal transport ([3]; ISI 28 hr, fast component, MBO/mitochondria): significant reduction; also recorded: decreased
effect of ET-1 on anterograde axonal transport ([3]; ISI 32 hr, fast component, MBO/mitochondria): significant reduction; also recorded: decreased
effect of ET-1 on anterograde axonal transport ([3]; ISI 36 hr, fast component, MBO/mitochondria): significant reduction; also recorded: decreased
effect of ET-1 on anterograde axonal transport ([3]; ISI 4 days, SCa, cytoplasmic matrix proteins): significant reduction; also recorded: decreased
effect of ET-1 on anterograde axonal transport ([3]; ISI 21 days, SCb, cytoskeletal proteins): significant reduction; also recorded: decreased
mRNA expression of inducible nitric oxide synthase-2 (NOS-2) in the retina [4]: causes the mRNA expression of inducible nitric oxide synthase-2 (NOS-2)
